Reference: BindingDB's records for doi:10.7270/Q2HM57BR (D3R/Abbott, 2015)
pKd: −log10 of the molar value.

Biological target: T1, UDP-3-O-acyl-N-acetylglucosamine deacetylase (Pseudomonas aeruginosa (strain ATCC 15692 / DSM 22644 / CIP 104116 / JCM 14847 / LMG 12228 / 1C / PRS 101 / PAO1), UniProt P47205)
T1 sequence (P47205 whole entry): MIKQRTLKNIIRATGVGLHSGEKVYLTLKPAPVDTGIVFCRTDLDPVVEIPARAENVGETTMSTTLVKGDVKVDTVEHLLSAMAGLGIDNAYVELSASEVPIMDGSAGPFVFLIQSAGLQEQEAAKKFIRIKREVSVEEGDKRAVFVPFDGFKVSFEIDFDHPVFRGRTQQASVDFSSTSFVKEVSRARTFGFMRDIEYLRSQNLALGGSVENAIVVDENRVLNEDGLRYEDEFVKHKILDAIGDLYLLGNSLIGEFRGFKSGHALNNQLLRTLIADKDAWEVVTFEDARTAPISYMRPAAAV
Assay: Thermofluor_Method1

pKd	SMILES
< 4.00	CC1(CNC(=O)c2ccc(-c3ccccc3)cc2)NC(=O)NC1=O (stereo unspecified) [CS21]
4.03	CC1(CNC(=O)c2ccc(C#Cc3ccccc3)cc2)NC(=O)NC1=O (stereo unspecified) [CS22]
< 4.00	CC1(CNC(=O)c2ccc(-c3ccc(Br)cc3)cc2)NC(=O)NC1=O (stereo unspecified) [CS23]
4.19	CC1(CNC(=O)c2ccc(C#CC#Cc3ccccc3)cc2)NC(=O)NC1=O (stereo unspecified) [CS243]
6.41	NC[C@H](NC(=O)c1ccc(-c2ccccc2)cc1)C(=O)NO [CS249]
6.72	NC[C@H](NC(=O)c1ccc(-c2ccc(Br)cc2)cc1)C(=O)NO [CS250]
7.23	NC[C@H](NC(=O)c1ccc(C#CC#Cc2ccccc2)cc1)C(=O)NO [CS252]
< 4.00	C[C@@H](O)[C@H](NC(=O)c1ccc(-c2ccccc2)cc1)C(=O)NCC1(C)NC(=O)NC1=O (stereo partly specified) [CS253]
< 4.00	C[C@@H](O)[C@H](NC(=O)c1ccc(C#Cc2ccccc2)cc1)C(=O)NCC1(C)NC(=O)NC1=O (stereo partly specified) [CS254]
< 4.00	C[C@@H](O)[C@H](NC(=O)c1ccc(C#CC#Cc2ccccc2)cc1)C(=O)NCC1(C)NC(=O)NC1=O (stereo partly specified) [CS255]
< 4.00	C[C@@H](O)[C@H](NC(=O)c1ccc(-c2ccc(Br)cc2)cc1)C(=O)NCC1(C)NC(=O)NC1=O (stereo partly specified) [CS256]
8.08	C[C@@H](O)[C@H](NC(=O)c1ccc(C#CC#Cc2ccccc2)cc1)C(=O)NO [CS257]
7.48	C[C@@H](O)[C@H](NC(=O)c1ccc(-c2ccc(Br)cc2)cc1)C(=O)NO [CS258]
7.70	C[C@@H](O)[C@H](NC(=O)c1ccc(C#Cc2ccccc2)cc1)C(=O)NO [CS259]
7.13	C[C@@H](O)[C@H](NC(=O)c1ccc(-c2ccccc2)cc1)C(=O)NO [CS263]
< 4.00	CC1(CNC(=O)[C@H](CN)NC(=O)c2ccc(-c3ccccc3)cc2)NC(=O)NC1=O (stereo partly specified) [CS264]

pKd	SMILES
< 4.00	CC1(CNC(=O)[C@H](CN)NC(=O)c2ccc(C#CC#Cc3ccccc3)cc2)NC(=O)NC1=O (stereo partly specified) [CS265]
< 4.00	CC1(CNC(=O)[C@H](CN)NC(=O)c2ccc(C#Cc3ccccc3)cc2)NC(=O)NC1=O (stereo partly specified) [CS266]
< 4.00	CC1(CNC(=O)[C@H](CN)NC(=O)c2ccc(-c3ccc(Br)cc3)cc2)NC(=O)NC1=O (stereo partly specified) [CS267]
5.14	O=C(NO)[C@H]1COC(c2ccc([N+](=O)[O-])cc2)=N1 [CS268]
< 4.00	O=C(NO)[C@H]1COC(c2ccc(OCc3cccc(F)c3)c(OC(F)(F)F)c2)=N1 [CS269]
5.42	O=C(NO)[C@H]1COC(c2ccc(OC(F)(F)F)c(Cl)c2)=N1 [CS270]
5.99	O=C(NO)[C@H]1COC(c2ccc(F)c(C(F)(F)F)c2)=N1 [CS271]
5.82	O=C(NO)[C@H]1COC(c2cc3cc(F)ccc3[nH]2)=N1 [CS272]
< 4.00	CN(C)c1ccc(C2=N[C@@H](C(=O)NO)CO2)cc1 [CS273]
4.81	CCCc1ccc(-c2ccc(C3=N[C@@H](C(=O)NO)CO3)cc2)cc1 [CS274]
4.67	O=C(NO)c1csc(-c2ccc(OC(F)(F)F)c(Cl)c2)n1 [CS275]
4.55	O=C(NO)C1=C[SiH2]C(c2ccc(F)cc2)=N1 (stereo unspecified) [CS276]
5.54	O=C(NO)c1csc(-c2ccc(F)c(C(F)(F)F)c2)n1 [CS277]
4.55	CN(C)c1ccc(-c2nc(C(=O)NO)cs2)cc1 [CS278]
4.95	O=C(NO)[C@H]1COC(c2ccc(F)cc2)=N1 [CS279]
